Reference: patent US20260240842A1, “METHODS TO PREVENT THERAPY RESISTANCE IN MELANOMA VIA BLOCKING GENOMIC INSTABILITY” (THE REGENTS OF THE UNIVERSITY OF CALIFORNIA, priority 2022, published 2026)

Test system: HSR harboring BRAF in M249 cells
Experiment: Metaphase DNA-FISH tracking emergence of BRAF HSR
Assay type: cell-based, human
Conditions: M249, day 31; DNA-PKi and/or PARPi given in combination with BRAFi+MEKi; FIG. 5G
Text: FIGS. 5A-5H. Resistance-driver ecDNAs and HSRs dynamically track with resistance and DNA-PKi prevents size-expansion of ecDNAs and CGRs early on MAPKi treatment. FIGS. 5A to 5C, Metaphase DNA-FISH of paired parental and acquired resistant BRAF^V600MUT (5A and 5B) or NRAS^Q61MUT (5C) cell lines without or with drug withdrawal showing ecDNA- or HSR-amplicons harboring BRAF, RAF1 or NRAS. Left, representative images; right, quantifications per cell. Ruler, 15 μm. P values (Unpaired two-tailed Student's t-test): *, p<0.05; **, p<0.01; ***, p<0.001. FIGS. 5D to 5F: Three- (upper) and six-(lower) day MTT assay of indicated cell lines treated with graded concentrations of BRAFi+MEKi (5D and 5E) or MEKi (5F). Cell viability was normalized to respective DMSO/vehicle group. Inner brackets, comparisons between acquired-resistant sub-lines without and with drug withdrawal. Outer brackets, comparisons between acquired-resistant sub-lines and their isogenic parental cell lines. […] FIG. 5G: Representative images (left) and quantification (right) of metaphase DNA-FISH showing HSR harboring BRAF in M249 cells treated with vehicle or BRAFi+MEKi, with or without NU7026 and/or ABT888 for 31 days. […] FIG. 5H: Average total genomic spans of treatment-specific ecDNAs+CGRs in M229 and M245 cell lines (background ecDNA+CGR spans detected in vehicle-treated cells were filtered). […]

C[C@]1(c2nc3c(C(N)=O)cccc3[nH]2)CCCN1 [ABT888, veliparib]
BRAF HSRs early on treatment: suppression

O=c1cc(N2CCOCC2)oc2c1ccc1ccccc12 [NU7026]
BRAF HSRs early on treatment: suppression
